pIC50: −log10 of the molar value.
Target: T1, Prostaglandin D2 receptor (Homo sapiens, UniProt Q13258)
T1 sequence (Q13258 whole entry): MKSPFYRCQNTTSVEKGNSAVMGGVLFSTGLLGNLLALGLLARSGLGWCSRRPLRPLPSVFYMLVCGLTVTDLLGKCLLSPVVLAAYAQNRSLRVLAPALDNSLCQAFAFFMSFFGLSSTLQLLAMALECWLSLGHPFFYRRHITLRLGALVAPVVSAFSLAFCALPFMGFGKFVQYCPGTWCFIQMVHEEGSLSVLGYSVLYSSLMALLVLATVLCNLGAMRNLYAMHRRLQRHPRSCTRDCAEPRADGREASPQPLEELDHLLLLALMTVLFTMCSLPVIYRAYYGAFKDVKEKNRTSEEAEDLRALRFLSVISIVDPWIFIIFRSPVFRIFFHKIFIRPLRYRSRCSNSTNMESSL
Test: Antagonist activity at prostaglandin D2 receptor in human LS174T cells assessed as inhibition of PGD2-induced cAMP accumulation after 15 mins by scintillation proximity assay
Format: functional, cell-based

## COc1ccc(CCNc2cc(-c3ccc(F)c(/C=N/O)c3)nc(OC)n2)cc1
  pIC50: 8.35

From ChEMBL document CHEMBL1641378, “Understanding DP receptor antagonism using a CoMSIA approach” (Bioorg Med Chem Lett, 2011)
